Experimental data as given in patent US20150291933A1, “CELL DIFFERENTIATION” (THE UNIVERSITY OF MANCHESTER, priority 2012, published 2015).
Entries after “also recorded” stand apart in the source; their conditions may differ. Where no end group is shown, it is not given here.

Columns and labels:
[1] = target: T1, human E-cadherin (human, UniProt P12830 155-882); experiment: cell-based or functional assay
T1 sequence: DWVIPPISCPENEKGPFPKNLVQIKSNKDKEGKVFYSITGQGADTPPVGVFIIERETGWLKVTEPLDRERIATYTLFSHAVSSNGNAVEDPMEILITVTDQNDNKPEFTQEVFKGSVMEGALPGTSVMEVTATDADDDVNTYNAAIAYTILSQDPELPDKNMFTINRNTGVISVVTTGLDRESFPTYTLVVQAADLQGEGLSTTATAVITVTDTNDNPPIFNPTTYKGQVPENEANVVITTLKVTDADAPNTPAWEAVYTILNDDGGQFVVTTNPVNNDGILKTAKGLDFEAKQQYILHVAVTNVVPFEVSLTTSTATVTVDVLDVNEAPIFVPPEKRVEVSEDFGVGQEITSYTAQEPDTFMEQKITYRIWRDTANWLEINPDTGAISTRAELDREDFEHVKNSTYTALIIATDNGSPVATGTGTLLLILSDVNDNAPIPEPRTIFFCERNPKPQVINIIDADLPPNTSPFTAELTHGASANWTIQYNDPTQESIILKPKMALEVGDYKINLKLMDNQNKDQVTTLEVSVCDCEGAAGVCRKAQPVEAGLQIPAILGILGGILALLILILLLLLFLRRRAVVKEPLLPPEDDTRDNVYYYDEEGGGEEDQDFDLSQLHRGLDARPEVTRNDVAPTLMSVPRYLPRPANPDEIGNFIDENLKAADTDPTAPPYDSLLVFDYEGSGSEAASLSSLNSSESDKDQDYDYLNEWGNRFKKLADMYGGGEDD

[2] = system: Human iPS cells (hiPSCs); experiment: Neural differentiation of hiPSCs using E-cadherin inhibitors, Nestin immunofluorescence; format: cell-based; details: day 7; for number of Nestin positive cells: treated daily, peptides 1 mM, antibody 2 μg/ml
Procedure: Human iPSCs were differentiated as previously described. Peptides A, B or C were supplemented to the media at a final concentration of 1 mM and E-cadherin neutralising antibody supplemented to the media at 2 μg/ml daily for 6-7 days. The equivalent volume of water was added to cultures as a vehicle control.
All other methodology was performed as outlined above in connection with neural differentiation and characterisation of resultant neural progenitor cells (NPCs). […] Accordingly, supplementation in this manner may be a preferred embodiment of methods of the invention as practiced upon pluripotent stem cells such as iPSCs.
To initiate differentiation confluent undifferentiated cells were dissociated and seeded at a low density onto gelatin coated wells in differentiation medium supplemented with/without E-cadherin-inhibitors for 7 days. To identify the phenotype of these cells, cultures were harvested at day 7 and immunofluorescent analysis of the neural progenitor cell marker Nestin was performed (FIG. 10).

[3] = system: Human iPS cells (hiPSCs); experiment: Effect of E-cadherin inhibitors on cell-cell contact in pluripotent hiPSCs (phase contrast); format: cell-based; details: 48 h in MTesR complete media, adherent feeder free
Procedure: Human iPS cells (hiPSCs) were grown under adherent feeder-free culture conditions. All cells were propagated for a minimum of two passages as feeder-free cultures to exclude unwanted residual mouse fibroblast feeder cells. Cells were cultured in MTesR complete medium (Stem Cell Technologies). Cells were cultured on Matrigel™- (BD Biosciences 356234) coated tissue culture grade plates. Matrigel-treated plates were coated with pre-diluted Matrigel™ (1:100 in DMEM/F12 media) and incubated at room temperature prior to use. Media was replenished every 24 h and cells were passaged upon confluency. Cells were dissociated using trypsin-EDTA.
Human iPS cells were grown under standard adherent feeder-free culture conditions prior to induction of differentiation.

[4] = system: Human ES cells (HUES7, H9, MAN7); experiment: Differentiation of human ES cells towards neural precursor cells in adherent culture, immunofluorescence of neural precursor markers; format: cell-based
Procedure: Human ES cell lines, HUES7 (passage 39-44), H9 (passage 50-55) and MAN7 (passage 18-21) were grown under adherent feeder-free culture conditions prior to induction of differentiation. Cells were cultured in STEMPRO® (Invitrogen—complete medium) which comprises; DMEM/F-12+GlutaMAX, 8 ng/ml FGF-basic factor (Peprotec), STEMPRO® hESC SFM Growth Supplement (1×), 1.8% BSA, and 0.1 Mm 2-mercaptoethanol. Cells were cultured on either Matrigel™- (BD Biosciences 356234) or Geltrex™- (Invitrogen 12760-021) coated tissue culture grade plates. Matrigel-treated plates were coated with pre-diluted Matrigel™ (1:100 in DMEM/F12 media) and incubated at room temperature prior to use. Geltrex™-coated plates were coated with pre-diluted Geltrex™ (1:29 in DMEM/F12 media) and incubated for 1 h at 37° C. prior to use. Media was replenished every 24 h and cells were passaged upon confluency. All cells were propagated for a minimum of two passages as feeder-free cultures to exclude unwanted residual mouse fibroblast feeder cells. Cells were dissociated either using trypsin-EDTA (Sigma) or Collagenase IV (Sigma-1 mg/ml final concentration) dependent on the ES cell line used.
Confluent undifferentiated cells were dissociated and seeded at a low density (2.0E5 cells/962 mm2) onto 0.1% w/v gelatin coated wells in differentiation medium alone (DMEM/F-12+GlutaMAX (Invitrogen), 10% Knockout Serum Replacement (KSR) (Invitrogen), Penicillin/Streptomycin (1×) (PAA) for 24 hours prior to media supplementation with an E-cadherin inhibiting peptide (H-Ser-Trp-Glu-Leu-Tyr-Tyr-Pro-Leu-Arg-Ala-Asn-Leu-NH2, >95% purity, acetate salt background) (Bachem) as published in Devemy & Blashuk (2009). Peptide was reconstituted at 30 mg/ml in sterile ddH2O (20 mM stock concentration), with a working concentration 500 μM for inhibition of human E-cadherin. Media (and peptide) were replenished every 2 days for 6-7 days. After this time peptide is no longer necessary. […]
Cells were fixed in 4% w/v paraformaldehyde and stained in situ (Mohamet et al, 2010). […] The cells were viewed on a Leica DM500 fluorescence microscope.

[5] = system: Human ES cells; experiment: Assessment of non-neuronal lineages in directed neural differentiation of human ES cells; format: cell-based
Procedure: Confluent undifferentiated cells were dissociated and seeded at a low density (2.0E5 cells/962 mm2) onto 0.1% w/v gelatin coated wells in differentiation medium alone (DMEM/F-12+GlutaMAX (Invitrogen), 10% Knockout Serum Replacement (KSR) (Invitrogen), Penicillin/Streptomycin (1×) (PAA) for 24 hours prior to media supplementation with an E-cadherin inhibiting peptide (H-Ser-Trp-Glu-Leu-Tyr-Tyr-Pro-Leu-Arg-Ala-Asn-Leu-NH2, >95% purity, acetate salt background) (Bachem) as published in Devemy & Blashuk (2009). Peptide was reconstituted at 30 mg/ml in sterile ddH2O (20 mM stock concentration), with a working concentration 500 μM for inhibition of human E-cadherin. Media (and peptide) were replenished every 2 days for 6-7 days. After this time peptide is no longer necessary. Morphological analysis and immunostaining with markers for neural precursor cells and more mature neural cells were performed during the course of the differentiation protocol.
Cells were fixed in 4% w/v paraformaldehyde and stained in situ (Mohamet et al, 2010). […] The cells were viewed on a Leica DM500 fluorescence microscope. […]

E-cadherin neutralising antibody (SHE78.7 clone, Invitrogen 13-5700)
loss of cell-cell contact in hiPSCs (phase contrast, 48 h, antibody 2 ug/ml) [1]: > 85%

SRELYYPLRANL [Peptide B, control]
number of Nestin positive cells [2]: 33%
culture morphology / cell-cell contacts [3]: retain the compacted morphology typical of hiPSCs; also recorded: retain the compacted morphology of hiPSCs, without loss of cell-cell contacts

SWELYYPL (Inhibitory peptide) [Peptide C]
Nestin positive cells, one experiment (variable results) ([2]; peptide 1 mM, one experiment only): approx. 50%
number of Nestin positive cells [2]: 76%
loss of cell-cell contact, proportion of cells [3]: 50-60%

SWELYYPLRANL (SWELYYPLRANL-NH2; also: acetate salt) [Peptide A, Study 1 used H-Ser-Trp-Glu-Leu-Tyr-Tyr-Pro-Leu-Arg-Ala-Asn-Leu-NH2 (Bachem, acetate salt background)]
number of Nestin positive cells [2]: 94%
undifferentiated colonies (phase contrast) ([4]; cultured 6-7 days in media supplemented with peptide): no undifferentiated colonies were observed
number of Nestin positive cells ([4]; media supplemented with peptide 500 μM, 7 days of differentiation, n=3): 95.3%
NESTIN and VIMENTIN expression (immunofluorescence) ([4]; peptide 500 μM, harvested at day 7): homogenous expression
α smooth muscle actin (mesoderm) expression ([5]; cells harvested on day 15, n=3): only detected in 1 cell out of all cultures assessed
staining of endoderm marker Forkhead box protein A2 (foxA2) ([5]; differentiated for 15 days): no positive staining

SWELYYPLRANL (not fully specified) [Peptide A (SWELYYPLRANL)]
loss of cell-cell contact in hiPSCs (phase contrast, 48 h, peptide 1 mM) [1]: > 85%
